Patent US6825178B1, “Methods and products for treating pseudomonas infection” (The Brigham and Women's Hospital, Inc., priority 1996, dated 2004)
Marks after values point to notes of the source that are not given here.

Legend:
[1] = system: transformed human airway epithelial cells (CFT1-LCFSN line); test: Inhibition of internalization of P. aeruginosa strain 149 into CFT1-LCFSN cells (bacterial ingestion assay); format: cell-based; conditions: strain 149, CFT1-LCFSN cells
Excerpt: (§1) Cell lines. CFT1-LCFSN cells, carrying a retrovirally introduced chromosomal copy of the wild-type human CFTR gene were kindly provided by J. Olsen, J. Yankaskis and L. Johnson from The University of North Carolina, Chapel Hill, N.C.. The cell line parental to CFT1-LCFSN is designated CFT1; it is a line of human papilloma virus 18 E6/E7 transformed bronchial epithelial cells derived from a CF patient homozygous for ΔF508 CFTR. The CFT1-LCFSN cells have normal chloride ion conductance. CFT1-ΔF508 cells are derived from CFT1 cells and carry a cDNA introduced by a retrovirus vector that encodes the ΔF508 mutant form of CFTR. Cells were grown in supplemented F-12 medium as described in 5% CO2 at 37° C.
(§2) Bacterial strains. P. aeruginosa strains used include PAO1, a well-characterized laboratory strain, and strains 149 and 324, non-mucoid, LPS-smooth clinical isolates of P. aeruginosa from CF patients early in the course of infection. Fresh cultures of P. aeruginosa grown overnight at 37° C. on a tryptic soy agar plate were suspended in supplemented medium to prepare the bacterial inoculum. Approximately 10^6 cfu of the bacterial inoculum were added per well of 10^5, epithelial cells.
(§3) Reagents for inhibition of ingestion assays. Membranes were prepared from C127 cells as described by O'Riordan et al.. Membranes were suspended in 150 mM NaCl, 50 mM Tris, pH 7.5 and 1 mM EDTA and added at the indicated concentration to suspensions of P. aeruginosa strains prior to adding this mixture to CFT1-LCFSN cells to measure bacterial uptake. Membranes from CEM/VbI cells expressing P-glycoprotein and membranes from control CEM cells lacking P-glycoprotein were obtained from James Croop of Harvard Medical School. Purified (˜85%) recombinant CFTR was obtained from Genzyme Corp., and prepared as described. The protein was solubilized in 100 mM NaCl, 10 mM Tris, pH 8.0, 2 mM di-thio-threitol and 0.1% sodium dodecyl sulfate. Monoclonal antibodies raised to synthetic peptides corresponding to the first (MAb CF3) and fourth (MAb CF4) predicted extracellular domains of CFTR, as well as a MAb specific to a peptide representing the carboxy-terminal 14 amino acids of mature CFTR (MAb CF2) were provided by Dr. George Banting, University of Bristol, Bristol, UK [12]. Synthetic peptides were obtained from Chiron Mimetopes, San Diego, Calif. Peptide GRIIASYDPDNKEER (15 amino acids) (SEQ.ID.NO. 3) represents amino acids 103-117 of mature CFTR, peptide […] (31 amino acids) (SEQ.ID.NO. 4) represents amino acids 881-911 of mature CFTR. Peptides were made up as a stock solution in F-12 medium containing 1 μM/μl based on the purity reported by the manufacturer. Peptides were diluted in F-12 tissue culture medium prior to use in assays.
(§4) Bacterial ingestion assay. Cells were released from monolayers in tissue culture flasks by 5 min. of incubation with trypsin-versene mixture (BioWhitaker, Walkersville, Md.), washed, counted and seeded into 96-well tissue culture plates at 10^5 cells/well in supplemented F-12 medium and incubated at 37° C. in 5% CO2. Fresh cultures of P. aeruginosa grown overnight at 37° C. on a tryptic soy agar plate were suspended in supplemented F-12 medium to prepare the bacterial inoculum. Then 10^6 colony forming units (cfu) of the bacterial inoculum were added per well of 10^5 epithelial cells. Bacteria were allowed to invade the epithelial cells for 3 to 4 hours at 37° C., after which nonadherent bacteria were removed by washing. The remaining steps of the assay and the steps involved in the controls have previously been described. Three to 9 replicates were obtained per point, and analyzed using analysis of variance (ANOVA) and the Fisher PLSD statistic to determine pairwise differences. […]

[2] = system: transformed human airway epithelial cells (CFT1-LCFSN line); test: Inhibition of internalization of P. aeruginosa strain 324 into CFT1-LCFSN cells (bacterial ingestion assay); format: cell-based; conditions: strain 324, CFT1-LCFSN cells
Excerpt: as §1, §2, §3, §4

| Sequence | Mean cfu of P. aeruginosa internalized (standard deviation) ([1]; 0.001 nanomoles peptide) | Mean cfu of P. aeruginosa internalized (standard deviation) ([1]; 0.01 nanomoles peptide) | Mean cfu of P. aeruginosa internalized (standard deviation) ([1]; 0.1 nanomoles peptide) | Mean cfu of P. aeruginosa internalized (standard deviation) ([1]; 1 nanomoles peptide) | Mean cfu of P. aeruginosa internalized (standard deviation) ([2]; 0.001 nanomoles peptide) | Mean cfu of P. aeruginosa internalized (standard deviation) ([2]; 0.01 nanomoles peptide) | Mean cfu of P. aeruginosa internalized (standard deviation) ([2]; 0.1 nanomoles peptide) | Mean cfu of P. aeruginosa internalized (standard deviation) ([2]; 1 nanomoles peptide) |
| --- | --- | --- | --- | --- | --- | --- | --- | --- |
| GRIIASYDPDNKEER (listed as Homo Sapiens) [First domain] | 5.73 × 10^4 (4.006 × 10^3) cfu | 1.705 × 10^4 (2.1333 × 10^3)^a cfu | 7.0167 × 10^3 (8.542 × 10^2)^a cfu | 3.7833 × 10^3 (4.491 × 10^2)^a cfu | 1.3938 × 10^5 (7.6735 × 10^3) cfu | 1.405 × 10^5 (9.4323 × 10^3) cfu | 7.232 × 10^4 (5.6982 × 10^3)^a cfu | 1.462 × 10^4 (2.6955 × 10^3)^a cfu |
| LWLLGNTPLQDKGNSTHSRNNSYAVIITSTS (listed as Homo Sapiens) [Fourth domain, reference compound] | 4.752 × 10^4 (5.9915 × 10^3) cfu | 4.86 × 10^4 (4.6463 × 10^3) cfu | 5.528 × 10^4 (6.0598 × 10^3) cfu | 5.735 × 10^4 (4.0009 × 10^3) cfu | 1.3275 × 10^5 (9.408 × 10^3) cfu | 1.412 × 10^5 (7.1986 × 10^3) cfu | 1.416 × 10^5 (1.195 × 10^4) cfu | 1.42 × 10^5 (1.746 × 10^4) cfu |
